Laboratory results taken from US9260760B2, “Method for determining complete response to anticancer therapy” (Board of Regents, The University of Texas System, priority 2012, dated 2016).
“And” between values parts separate entries of the source, which are not always exact repeats. Equal values may be shown once.

Tested on: metastatic colorectal cancer
Test: Study 1: retrospective cohort, XCEL with or without radiation; tumor response (RECIST), PFS and OS
Format: in vivo, human
Excerpt: The institutional review board of The University of Texas M. D. Anderson Cancer Center approved this retrospective expanded cohort study. Between October 2000 and December 2003, seventy-four patients with metastatic colorectal cancer received capecitabine with concurrent celecoxib (n=66), or rofecoxib (n=2), ibuprofen (n=2), sulindac (n=2) and high dose aspirin (n=2).
The radiation was delivered to the target area using 18 MV photons with 3-D conformal planning technique. The dose of radiation was either 35-40 Gy (n=18) or >45 Gy (n=15) with dose radiation missing in one patient. […] Celecoxib was continued with capecitabine to prevent HFS and to improve survival.
All patients were subjected to routine clinical examinations, laboratory analyses, and computed tomography. Patients were seen weekly during radiotherapy if treated on site or every 6-9 weeks with physical examinations, laboratory tests, and computed tomography. Treatment-related toxicity was graded using the National Institutes of Health's Common Toxicities Criteria (CTC) version 2.0. Tumor responses were evaluated using RECIST criteria. Complete response was defined as complete radiographic disappearance of measurable or evaluable disease or stable, minimal radiographic findings; partial response was defined as reduction of the longest dimension of measurable disease by at least 50%; stable disease was defined as reduction of the longest dimension by less than 25%; These responses or stable must be confirmed at least by 3 months interval evaluation; Progressive disease was defined as growth of the tumor by more than 25% in the longest dimension or development of new lesions. Overall response rate was defined as the sum of the complete and partial response rates and the tumor control rate was defined as the sum of overall response rates with stable disease rates. The date of death was ascertained through the cancer registry or through a search of patients' social security numbers in the Social Security Death Index (ssdi.genealogy.rootsweb.com). The cutoff point for collection of data was April 2004.
Continuous variables were summarized using the mean (±standard deviation) or the median (range). […] Progression-free and overall survival distributions were summarized using the method of Kaplan and Meier. Differences in progression-free and overall survival by subgroup were analyzed using the log-rank test. Multivariate models of predictors of progression-free survival and overall survival were evaluated using the proportional hazards (Cox) regression model. P<0.05 was considered statistically significant.

[1] = First-line responders, no radiation (n = 5)
[2] = First-line responders, radiation (n = 4)
[3] = First-line, no radiation (n = 14)
[4] = Second-line, no radiation (n = 13)
[5] = Second-line, radiation (n = 20)
[6] = second-line XCEL, progressed on 5FU and irinotecan (n=28)
[7] = second-line with 9 first-line responding patients included
[8] = second-line, irinotecan refractory

Compound: Cc1ccc(-c2cc(C(F)(F)F)nn2-c2ccc(S(N)(=O)=O)cc2)cc1 [XCEL]
- Overall Survival, Median (95% CI) (All): 22.0 (17.8-31.5) months
- Progression-free survival, Median (95% CI) (All): 8.3 (7.0-11.0) months
- Overall Survival, Median (95% CI) (CEA >3.0 ng/ml): 20.0 (16.2-26.9) months
- Progression-free survival, Median (95% CI) (CEA >3.0 ng/ml): 7.1 (5.7-9.4) months
- Overall Survival, Median (95% CI) (CEA ≦3.0 ng/ml): 31.5 (18.0-NR) months
- Progression-free survival, Median (95% CI) (CEA ≦3.0 ng/ml): 16.8 (9.4-NR) months
- Complete response [1]: 4 (80) No. of patients (%)
- Overall response [1]: 4 (80) No. of patients (%)
- Partial response [1]: 0 (0) No. of patients (%)
- Stable disease [1]: 0 (0) No. of patients (%)
- Tumor control [1]: 4 (80) No. of patients (%)
- Complete response [2]: 3 (75) No. of patients (%)
- Overall response [2]: 4 (100) No. of patients (%)
- Partial response [2]: 1 (0) No. of patients (%)
- Stable disease [2]: 0 (0) No. of patients (%)
- Tumor control [2]: 4 (100) No. of patients (%)
- Complete response [3]: 1 (7) No. of patients (%)
- Overall response [3]: 4 (29) No. of patients (%)
- Partial response [3]: 3 (21) No. of patients (%)
- Stable disease [3]: 8 (57) No. of patients (%)
- Tumor control [3]: 12 (86) No. of patients (%)
- Complete response (First-line, radiation (n = 10)): 3 (30) No. of patients (%)
- Overall response (First-line, radiation (n = 10)): 4 (40) No. of patients (%)
- Partial response (First-line, radiation (n = 10)): 3 (20) No. of patients (%)
- Stable disease (First-line, radiation (n = 10)): 4 (40) No. of patients (%)
- Tumor control (First-line, radiation (n = 10)): 8 (80) No. of patients (%)
- Progression-free survival, Median (95% CI) (LDH >618): 6.4 (4.3-7.2) months
- Progression-free survival, Median (95% CI) (LDH ≦618): 14.5 (9.2-26.3) months
- Overall Survival, Median (95% CI) (LDH ≦618 (normal level of LDH)): 31 months and 31.5 (23.6-NR) months
- Overall Survival, Median (95% CI) (No Radiation (RT)): 20.0 (16.6-22.8) months
- Progression-free survival, Median (95% CI) (No Radiation (RT)): 7.2 (4.8-9.4) months
- Complete response (No radiation (n = 32)): 4 (13) No. of patients (%)
- Overall response (No radiation (n = 32)): 10 (31) No. of patients (%)
- Partial response (No radiation (n = 32)): 6 (19) No. of patients (%)
- Stable disease (>4 months) (No radiation (n = 32)): 13 (41) No. of patients (%)
- Tumor control (No radiation (n = 32)): 23 (72) No. of patients (%)
- Overall Survival, Median (95% CI) (No surgery): 19.3 (16.2-26.9) months
- Progression-free survival, Median (95% CI) (No surgery): 7.8 (6.4-9.4) months
- Progression-free survival, Median (95% CI) (RT <45 Gy): 8.0 (6.4-14.6) months
- Overall Survival, Median (95% CI) (RT ≧45 Gy): 21.8 (17.6-NR) months
- Progression-free survival, Median (95% CI) (RT ≧45 Gy): 21.2 (7.1-21.2) months
- Complete response (Radiation (n = 34)): 9 (26) No. of patients (%)
- Overall response (Radiation (n = 34)): 15 (44) No. of patients (%)
- Partial response (Radiation (n = 34)): 6 (18) No. of patients (%)
- Stable disease (>4 months) (Radiation (n = 34)): 12 (35) No. of patients (%)
- Tumor control (Radiation (n = 34)): 27 (79) No. of patients (%)
- Complete response [4]: 0 No. of patients (%)
- Overall response [4]: 2 (15) No. of patients (%)
- Partial response [4]: 2 (15) No. of patients (%)
- Stable disease [4]: 5 (38) No. of patients (%)
- Tumor control [4]: 7 (54) No. of patients (%)
- Complete response [5]: 2 (10) No. of patients (%)
- Overall response [5]: 7 (35) No. of patients (%)
- Partial response [5]: 5 (25) No. of patients (%)
- Stable disease [5]: 8 (40) No. of patients (%)
- Tumor control [5]: 15 (75) No. of patients (%)
- Progression-free survival, Median (95% CI) (Surgery): 16.8 (8.3-31.4) months
- patients achieving complete response (after first-line response to irinotecan-based therapy): 7 of 9
- second line overall response rate (all 9 first-line irinotecan responders included): 40.5%
- complete response (CR) (all 66 patients): 20%
- overall response rate (all 66 patients): 38%
- partial response (PR) (all 66 patients): 18%
- tumor control rate (all 66 patients): 76%
- median PFS (first-line XCEL): 8.3 months
- median overall survival (first-line XCEL): 26.9 months
- Stable disease (%) (first-line XCEL (n=24)): 50%
- complete response (CR) (first-line XCEL (n=24)): 17%
- overall response rate (first-line XCEL (n=24)): 34% and 33%
- tumor control rate (first-line XCEL (n=24)): 84%
- complete responses (nineteen of 66 patients, XCEL alone or with radiation): 29%
- complete response by site (nodal metastasis): 51%
- complete response by site (peritoneum): 40%
- Stable disease (%) (second-line XCEL (n=28)): 50%
- complete response (CR) [6]: 7%
- overall response rate [6]: 25%
- tumor control rate [6]: 68%
- median overall survival [7]: 19.3 months
- median progression free survival [7]: 8.3 months
- median PFS [8]: 6.7 months
- median overall survival [8]: 17.8 months and 17.6 months
